{
  "source": "patent US11896573B2",
  "about": "“Pharmaceutical compositions and pharmacokinetics of a gamma-hydroxybutyric acid derivative” (priority 2020, dated 2024)",
  "experiment": "Multiple ascending dose study, plasma pharmacokinetics of Compound (1) and GHB",
  "assay_type": "in vivo, human",
  "method": "The plasma concentrations of Compound (1) and GHB in plasma in healthy human subjects were measured using liquid chromatography tandem mass-spectroscopy and evaluated using PHOENIX™ WINNONLIN® version 8.1 (Pharsight Corporation, USA) and MICROSOFT® EXCEL® (Microsoft Corporation, USA).\nAll randomized subjects who received Compound (1), with available pharmacokinetic (PK) data and without relevant deviations interfering with the PK evaluations, were included. Subjects who received only placebo were excluded from the PK population. In addition, the PK population was used for the summaries and analyses of all PK data.\nA multiple ascending dose study was undertaken to evaluate the pharmacokinetics of multiple doses of Compound (1) in 3 cohorts of healthy subjects (with 8 subjects/cohort). Within each cohort, the subjects were randomized to receive Compound (1) or placebo at a ratio of 6:2 (active: placebo) for 7 days (or up to 9 days if the cohort included a titration period).\nAfter fasting for at least 3 hours following a standard meal, subjects were randomized on Day 1 and the first dose of study drug (either target dose or titration dose) was administered. The first cohort of subjects (Cohort 8) received the second dose administration at approximately four hours after receiving the first dose. The subsequent […] cohorts (Cohorts 9 and 10) received only one dose per day.\nFor the first cohort (Cohort 8), the dose used was 6.0 g divided into two equal doses four hours apart for 7 days starting from Day 4 “Dose Day 1” to Day 10 “Dose Day 7”. Subsequent Cohorts 9, 10 received a single daily dose of 4.5 g and 6.0 g during the titration period (Day 1 for Cohort 9, Day 1 and Day 2 for Cohort 10, and after a titration period for 7 days starting from Day 4 “Dose Day 1” to Day 10 “Dose Day 7”. Cohort 11 was not conducted due to API availability.",
  "key": {"[1]": {"details": "Cohort 8 (6.0 g/day divided into equal 2 doses), Dosing Day 4"}, "[2]": {"details": "Cohort 8 (6.0 g/day divided into equal 2 doses), Dosing Day 10"}, "[3]": {"details": "Cohort 9 (4.5 g/day in a single dose), Dosing Day 4"}, "[4]": {"details": "Cohort 9 (4.5 g/day in a single dose), Dosing Day 10"}, "[5]": {"details": "Cohort 10 (6.0 g/day in a single dose), Dosing Day 4"}},
  "data": [
    {"compound": "CC(C)[C@H](N)C(=O)OCCCC(=O)O", "note": "[Compound (1), 4-((L-valyl)oxy)butanoic acid]", "values": [
      {"measurement": "Compound (1) CL/F, Max", "setting": "[1]", "value": 597, "unit": "L/h"},
      {"measurement": "Compound (1) CL/F, Mean", "setting": "[1]", "value": 431, "unit": "L/h"},
      {"measurement": "Compound (1) CL/F, Median", "setting": "[1]", "value": 405, "unit": "L/h"},
      {"measurement": "Compound (1) CL/F, Min", "setting": "[1]", "value": 315, "unit": "L/h"},
      {"measurement": "Compound (1) plasma AUC0-inf, Max", "setting": "[1]", "value": 19100, "unit": "ng·h/mL"},
      {"measurement": "Compound (1) plasma AUC0-inf, Min", "setting": "[1]", "value": 10100, "unit": "ng·h/mL"},
      {"measurement": "Compound (1) plasma AUC0-tlast, Max", "setting": "[1]", "value": 19000, "unit": "ng·h/mL"},
      {"measurement": "Compound (1) plasma AUC0-tlast, Min", "setting": "[1]", "value": 10000, "unit": "ng·h/mL"},
      {"measurement": "Compound (1) plasma Cmax, Max", "setting": "[1]", "value": 16700, "unit": "ng/mL"},
      {"measurement": "Compound (1) plasma Cmax, Min", "setting": "[1]", "value": 9600, "unit": "ng/mL"},
      {"measurement": "Compound (1) plasma T1/2, Max", "setting": "[1]", "value": 112, "unit": "min"},
      {"measurement": "Compound (1) plasma T1/2, Min", "setting": "[1]", "value": 13.2, "unit": "min"},
      {"measurement": "Compound (1) plasma Tmax, Max", "setting": "[1]", "value": 270, "unit": "min"},
      {"measurement": "Compound (1) CL/F, Max", "setting": "[2]", "value": 569, "unit": "L/h"},
      {"measurement": "Compound (1) CL/F, Mean", "setting": "[2]", "value": 430, "unit": "L/h"},
      {"measurement": "Compound (1) CL/F, Median", "setting": "[2]", "value": 430, "unit": "L/h"},
      {"measurement": "Compound (1) CL/F, Min", "setting": "[2]", "value": 280, "unit": "L/h"},
      {"measurement": "Compound (1) plasma AUC0-inf, Max", "setting": "[2]", "value": 21500, "unit": "ng·h/mL"},
      {"measurement": "Compound (1) plasma AUC0-inf, Min", "setting": "[2]", "value": 10700, "unit": "ng·h/mL"},
      {"measurement": "Compound (1) plasma AUC0-tlast, Max", "setting": "[2]", "value": 21400, "unit": "ng·h/mL"},
      {"measurement": "Compound (1) plasma AUC0-tlast, Min", "setting": "[2]", "value": 10500, "unit": "ng·h/mL"},
      {"measurement": "Compound (1) plasma Cmax, Max", "setting": "[2]", "value": 17000, "unit": "ng/mL"},
      {"measurement": "Compound (1) plasma Cmax, Min", "setting": "[2]", "value": 8700, "unit": "ng/mL"},
      {"measurement": "Compound (1) plasma T1/2, Max", "setting": "[2]", "value": 31.2, "unit": "min"},
      {"measurement": "Compound (1) plasma T1/2, Min", "setting": "[2]", "value": 14.4, "unit": "min"},
      {"measurement": "Compound (1) plasma Tmax, Max", "setting": "[2]", "value": 285, "unit": "min"},
      {"measurement": "Compound (1) CL/F, Max", "setting": "[3]", "value": 406, "unit": "L/h"},
      {"measurement": "Compound (1) CL/F, Mean", "setting": "[3]", "value": 378, "unit": "L/h"},
      {"measurement": "Compound (1) CL/F, Median", "setting": "[3]", "value": 382, "unit": "L/h"},
      {"measurement": "Compound (1) CL/F, Min", "setting": "[3]", "value": 338, "unit": "L/h"},
      {"measurement": "Compound (1) plasma AUC0-inf, Max", "setting": "[3]", "value": 13300, "unit": "ng·h/mL"},
      {"measurement": "Compound (1) plasma AUC0-inf, Min", "setting": "[3]", "value": 11100, "unit": "ng·h/mL"},
      {"measurement": "Compound (1) plasma AUC0-tlast, Max", "setting": "[3]", "value": 13200, "unit": "ng·h/mL"},
      {"measurement": "Compound (1) plasma AUC0-tlast, Min", "setting": "[3]", "value": 8300, "unit": "ng·h/mL"},
      {"measurement": "Compound (1) plasma Cmax, Max", "setting": "[3]", "value": 17800, "unit": "ng/mL"},
      {"measurement": "Compound (1) plasma Cmax, Min", "setting": "[3]", "value": 10500, "unit": "ng/mL"},
      {"measurement": "Compound (1) plasma T1/2, Max", "setting": "[3]", "value": 40.8, "unit": "min"},
      {"measurement": "Compound (1) plasma T1/2, Min", "setting": "[3]", "value": 16.8, "unit": "min"},
      {"measurement": "Compound (1) CL/F, Max", "setting": "[4]", "value": 488, "unit": "L/h"},
      {"measurement": "Compound (1) CL/F, Mean", "setting": "[4]", "value": 423, "unit": "L/h"},
      {"measurement": "Compound (1) CL/F, Median", "setting": "[4]", "value": 443, "unit": "L/h"},
      {"measurement": "Compound (1) CL/F, Min", "setting": "[4]", "value": 323, "unit": "L/h"},
      {"measurement": "Compound (1) plasma AUC0-inf, Max", "setting": "[4]", "value": 13900, "unit": "ng·h/mL"},
      {"measurement": "Compound (1) plasma AUC0-inf, Min", "setting": "[4]", "value": 9200, "unit": "ng·h/mL"},
      {"measurement": "Compound (1) plasma AUC0-tlast, Max", "setting": "[4]", "value": 13800, "unit": "ng·h/mL"},
      {"measurement": "Compound (1) plasma AUC0-tlast, Min", "setting": "[4]", "value": 9100, "unit": "ng·h/mL"},
      {"measurement": "Compound (1) plasma Cmax, Max", "setting": "[4]", "value": 17800, "unit": "ng/mL"},
      {"measurement": "Compound (1) plasma Cmax, Min", "setting": "[4]", "value": 9300, "unit": "ng/mL"},
      {"measurement": "Compound (1) plasma T1/2, Max", "setting": "[4]", "value": 50.4, "unit": "min"},
      {"measurement": "Compound (1) plasma T1/2, Min", "setting": "[4]", "value": 22.2, "unit": "min"},
      {"measurement": "Compound (1) CL/F, Max", "setting": "[5]", "value": 684, "unit": "L/h"},
      {"measurement": "Compound (1) CL/F, Mean", "setting": "[5]", "value": 390, "unit": "L/h"},
      {"measurement": "Compound (1) CL/F, Median", "setting": "[5]", "value": 316, "unit": "L/h"},
      {"measurement": "Compound (1) CL/F, Min", "setting": "[5]", "value": 265, "unit": "L/h"},
      {"measurement": "Compound (1) plasma AUC0-inf, Max", "setting": "[5]", "value": 22700, "unit": "ng·h/mL"},
      {"measurement": "Compound (1) plasma AUC0-inf, Min", "setting": "[5]", "value": 8800, "unit": "ng·h/mL"},
      {"measurement": "Compound (1) plasma AUC0-tlast, Max", "setting": "[5]", "value": 22600, "unit": "ng·h/mL"},
      {"measurement": "Compound (1) plasma AUC0-tlast, Min", "setting": "[5]", "value": 8700, "unit": "ng·h/mL"},
      {"measurement": "Compound (1) plasma Cmax, Max", "setting": "[5]", "value": 28000, "unit": "ng/mL"},
      {"measurement": "Compound (1) plasma Cmax, Min", "setting": "[5]", "value": 10500, "unit": "ng/mL"},
      {"measurement": "Compound (1) plasma T1/2, Max", "setting": "[5]", "value": 30.6, "unit": "min"},
      {"measurement": "Compound (1) plasma T1/2, Min", "setting": "[5]", "value": 20.4, "unit": "min"}
    ]}
  ]
}
